This note sets out measurements from patent publication US7247653B2, “Pharmaceutical composition” (Takeda Pharmaceutical Company Limited, priority 2000, dated 2007).

In brackets after ≈: the same amount, converted by molar mass.

Type in all cases: physicochemical
The nature of data set [1]: Solubility of compound 72 in aqueous maltosyl-β-cyclodextrin, HPLC method (Experimental Example 9). Conditions: 25° C., 3 hr shaking. The method, then: An aqueous solution of maltosyl-β-cyclodextrin (hereinafter abbreviated as G2-β-CyD) at a concentration shown in Table 18 was added to compound 72 (100 mg) and the mixture was shaken at 25° C. for 3 hr. The solution was filtrated through a 0.45 μm filter, and the solubility of compound 72 was quantitatively determined by HPLC method.

Data set [2] in a line: Solubilizing effect of solubilizer on compound 72 (Comparative Example 1): stepwise solvent addition, sonication and vortex mixing. The method, then: Solubilizing Effect of Solubilizer on Compound 72
The solvent (1 ml) shown in Table 6 was added to compound 72 (5 mg), and solubility was confirmed after sonication and vortex mixing. When not dissolved, the solvent (1 ml) was further added, and solubility was confirmed after sonication and vortex mixing in the same manner. The concentration at the time of dissolution was taken as solubility.

Data set [3] in a line: Solubility of compound 72 in polyoxyethylene hydrogenated castor oil 50/ethanol solution (Experimental Example 4). The method, then:
Polyoxyethylene hydrogenated castor oil 50/ethanol solution (50 μl) at a ratio (weight ratio) shown in Table 11 was added to compound 72 (5 mg), the mixture was stirred and the solubility was confirmed. The compound 72 dissolved at any mixing ratio, affording a clear solution.

Data set [4] can be described thus: Solubility of compound 72 in polyoxyethylene glycerol triricinoleate 35/ethanol solution (Experimental Example 1). Conditions: compound 72 (5 mg) in 50 μl polyoxyethylene glycerol triricinoleate 35/ethanol (w/w): 20/80 (Formulation 1), 65/35 (2), 100/0 (3). The method, then:
Polyoxyethylene glycerol triricinoleate 35/ethanol solution (50 μl) at a ratio (weight ratio) shown in Table 7 was added to compound 72 (5 mg), the mixture was stirred and the solubility was confirmed. The compound 72 dissolved at any mixing ratio, affording a clear solution.

Data set [5] in a line: Solubility of compound 72 in 40% aqueous 2-hydroxypropyl-β-cyclodextrin (Experimental Example 8). Conditions: HP-β-CyD concentration 40% aqueous solution. Here is the method: 40% Aqueous solution of 2-hydroxypropyl-β-cyclodextrin (hereinafter abbreviated as HP-β-CyD) (1 ml) was added to compound 72 (5 mg), and the solubility was confirmed by sonication and vortex mixing. When not dissolved, 40% HP-β-CyD solution (1 ml) was further added, and solubility was confirmed after sonication and vortex mixing in the same manner. The concentration at the time of dissolution was taken as solubility.

Usually Solubility stands for the concentration that dissolves in the medium under given conditions. As for `CCOC(=O)C1=CCCCC1S(=O)(=O)Nc1ccc(F)cc1Cl` (stereo not drawn) [compound 72, d-ethyl 6-[N-(2-chloro-4-fluorophenyl)sulfamoyl]-1-cyclohexene-1-carboxylate], the “Solubility” value in data set [1] (G2-β-CyD concentration 10%) was 4900 µg/mL (≈ 13.5 mM); in data set [1] (G2-β-CyD concentration 20%), 13000 µg/mL (≈ 35.9 mM); in data set [1] (G2-β-CyD concentration 40%), 31700 µg/mL (≈ 87.6 mM); in data set [2] (solvent 10% Pluronic F68 (polyoxyethylene(160)polyoxypropylene(30)glycol), lower concentrations not examined), “Not more than 0.5 mg/ml”; in data set [2] (solvent 10% ethanol, lower concentrations not examined) it was “Not more than 0.5 mg/ml”; in data set [2] (solvent 10% nicotinamide, lower concentrations not examined), “Not more than 0.5 mg/ml”. Moreover, the Solubility entry in data set [2] (solvent 10% sodium desoxycholate) is “about 0.7 mg/ml”; in data set [2] (solvent 10% sodium salicylate, lower concentrations not examined) it was “Not more than 0.5 mg/ml”; in data set [2] (solvent water), 13 µg/mL (≈ 0.0359 mM); in data set [3] (compound 72 (5 mg) in 50 μl polyoxyethylene hydrogenated castor oil 50/ethanol (w/w) 20/80) it was “Not less than 100 mg/ml”; in data set [3] (compound 72 (5 mg) in 50 μl polyoxyethylene hydrogenated castor oil 50/ethanol (w/w) 65/35), “Not less than 100 mg/ml”; in data set [4], “not less than 100 mg/ml”. Moreover, in data set [3] (polyoxyethylene hydrogenated castor oil 50/ethanol, any mixing ratio of Table 11), the “solubility of compound 72 in the solvent used” value is listed as “not less than 100 mg/ml”. Also, in data set [5], the “Solubility (mg/ml)” value was “About 1.7 mg/ml”.
